Source: BindingDB's records for doi:10.1007/BF02244985 (Mayo Clinic, 1994)
Counter-ions that a name gives are not always drawn.

Assays:
D(2) dopamine receptor = D(2) dopamine receptor (Homo sapiens, UniProt P14416)
[1] = molecular target: T1, 5-hydroxytryptamine receptor 1A (Homo sapiens, UniProt P08908)
T1 sequence (P08908 whole entry): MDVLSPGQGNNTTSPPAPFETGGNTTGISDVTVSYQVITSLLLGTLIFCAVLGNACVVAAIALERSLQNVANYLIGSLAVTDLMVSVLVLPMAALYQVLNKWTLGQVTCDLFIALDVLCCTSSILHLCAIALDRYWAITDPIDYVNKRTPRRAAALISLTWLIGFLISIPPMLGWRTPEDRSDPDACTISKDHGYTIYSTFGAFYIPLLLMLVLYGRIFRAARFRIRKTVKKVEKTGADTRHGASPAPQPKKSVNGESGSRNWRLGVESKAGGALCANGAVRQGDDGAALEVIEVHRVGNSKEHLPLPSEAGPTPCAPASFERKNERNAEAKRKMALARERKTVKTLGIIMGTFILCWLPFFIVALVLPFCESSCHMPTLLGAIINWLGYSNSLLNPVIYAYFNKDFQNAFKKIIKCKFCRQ

[2] = molecular target: T2, Alpha-1A adrenergic receptor (Homo sapiens, UniProt P35348)
T2 sequence (P35348 whole entry): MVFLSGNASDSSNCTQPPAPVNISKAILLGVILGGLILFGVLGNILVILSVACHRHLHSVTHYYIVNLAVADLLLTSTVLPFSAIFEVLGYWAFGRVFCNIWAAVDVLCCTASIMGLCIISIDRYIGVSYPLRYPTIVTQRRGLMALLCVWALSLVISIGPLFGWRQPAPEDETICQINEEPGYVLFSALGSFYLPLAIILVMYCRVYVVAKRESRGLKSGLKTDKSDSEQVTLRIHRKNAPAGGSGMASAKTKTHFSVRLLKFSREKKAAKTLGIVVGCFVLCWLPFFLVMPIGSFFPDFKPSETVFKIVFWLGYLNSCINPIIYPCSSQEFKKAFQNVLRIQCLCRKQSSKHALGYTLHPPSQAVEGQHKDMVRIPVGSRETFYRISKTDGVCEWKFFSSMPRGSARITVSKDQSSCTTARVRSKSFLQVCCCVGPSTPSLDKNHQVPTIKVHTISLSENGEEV

[3] = molecular target: T3, Muscarinic acetylcholine receptor M2 (Homo sapiens, UniProt P08172)
T3 sequence (P08172 whole entry): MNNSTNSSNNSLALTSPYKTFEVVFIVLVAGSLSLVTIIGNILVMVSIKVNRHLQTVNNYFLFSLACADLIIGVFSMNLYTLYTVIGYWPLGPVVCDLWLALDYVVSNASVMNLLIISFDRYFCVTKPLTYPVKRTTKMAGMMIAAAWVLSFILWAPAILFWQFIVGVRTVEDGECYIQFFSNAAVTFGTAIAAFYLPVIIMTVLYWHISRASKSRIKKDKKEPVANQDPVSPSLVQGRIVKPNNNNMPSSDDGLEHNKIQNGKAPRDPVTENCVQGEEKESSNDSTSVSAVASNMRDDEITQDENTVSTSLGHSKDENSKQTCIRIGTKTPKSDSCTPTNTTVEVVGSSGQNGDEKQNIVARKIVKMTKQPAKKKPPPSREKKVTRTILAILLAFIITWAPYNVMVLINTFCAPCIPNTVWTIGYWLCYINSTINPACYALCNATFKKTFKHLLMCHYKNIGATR

[4] = molecular target: T4, Alpha-2A adrenergic receptor (Homo sapiens, UniProt P08913)
T4 sequence (P08913 whole entry): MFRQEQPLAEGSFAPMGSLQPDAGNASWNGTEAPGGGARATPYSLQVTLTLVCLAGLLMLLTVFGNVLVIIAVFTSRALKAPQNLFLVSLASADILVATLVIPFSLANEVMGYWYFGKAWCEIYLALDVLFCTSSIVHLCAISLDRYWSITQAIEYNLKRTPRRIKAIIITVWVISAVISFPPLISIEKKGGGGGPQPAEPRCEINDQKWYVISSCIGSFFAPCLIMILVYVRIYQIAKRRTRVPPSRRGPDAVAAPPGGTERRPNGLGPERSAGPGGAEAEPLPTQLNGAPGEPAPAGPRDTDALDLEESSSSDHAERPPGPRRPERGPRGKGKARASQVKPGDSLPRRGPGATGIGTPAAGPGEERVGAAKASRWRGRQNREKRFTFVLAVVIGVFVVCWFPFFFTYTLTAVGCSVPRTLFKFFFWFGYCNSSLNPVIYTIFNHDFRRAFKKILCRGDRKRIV

Chain of D(2) dopamine receptor (P14416 whole entry): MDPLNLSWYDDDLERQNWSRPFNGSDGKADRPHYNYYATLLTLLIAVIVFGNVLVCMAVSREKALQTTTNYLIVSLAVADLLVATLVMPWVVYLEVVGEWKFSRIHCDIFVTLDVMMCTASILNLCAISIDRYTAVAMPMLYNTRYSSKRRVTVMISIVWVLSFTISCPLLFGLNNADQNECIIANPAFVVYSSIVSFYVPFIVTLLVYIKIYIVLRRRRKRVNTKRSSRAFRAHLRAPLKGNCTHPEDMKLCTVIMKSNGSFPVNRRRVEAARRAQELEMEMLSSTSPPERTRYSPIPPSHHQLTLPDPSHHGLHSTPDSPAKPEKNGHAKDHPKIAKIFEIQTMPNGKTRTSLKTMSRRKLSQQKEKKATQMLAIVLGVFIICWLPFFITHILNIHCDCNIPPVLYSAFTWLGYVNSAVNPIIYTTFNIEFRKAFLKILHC

Structure (SMILES): CN(C)CCCN1c2ccccc2CCc2ccccc21
- Ki (D(2) dopamine receptor): 0.62 µM
- Ki [1]: 5.8 µM
- Ki [2]: 0.032 µM
- Ki [3]: 0.046 µM
- Ki [4]: 3.1 µM

Structure (SMILES): CN(C)CCC=C1c2ccccc2CCc2ccccc21
- Ki (D(2) dopamine receptor): 1.46 µM
- Ki [1]: 0.45 µM
- Ki [2]: 0.024 µM
- Ki [4]: 0.69 µM

Structure (SMILES): N[C@H]1CC[C@@H](c2ccc(Cl)c(Cl)c2)c2ccccc21
- Ki (D(2) dopamine receptor): > 10 µM
- Ki [1]: > 10 µM
- Ki [2]: 1.2 µM
- Ki [3]: 1.43 µM
- Ki [4]: 7.8 µM

Structure (SMILES): CN(C)CC/C=C1/c2ccccc2COc2ccccc21
- Ki (D(2) dopamine receptor): 0.36 µM

Structure (SMILES): CCc1nn(CCCN2CCN(c3cccc(Cl)c3)CC2)c(=O)n1CCOc1ccccc1 [2-{3-[4-(3-chlorophenyl)piperazin-1-yl]propyl}-5-ethyl-4-(2-phenoxyethyl)-2,4-dihydro-3H-1,2,4-triazol-3-one]
- Ki (D(2) dopamine receptor): 0.91 µM
- Ki [1]: 0.08 µM
- Ki [2]: 0.048 µM

Structure (SMILES): COc1ccc(OC[C@H]2CN(C)CC[C@@H]2c2ccccc2)cc1 [(3R,4S)-3-(4-Methoxy-phenoxymethyl)-1-methyl-4-phenyl-piperidine]
- Ki (D(2) dopamine receptor): 0.59 µM
- Ki [1]: 2.29 µM
- Ki [2]: 0.65 µM
- Ki [3]: 0.184 µM
- Ki [4]: 1.97 µM

Structure (SMILES): CC(NC(C)(C)C)C(=O)c1cccc(Cl)c1 (stereo not given) [BUPROPION HYDROCHLORIDE]
- Ki (D(2) dopamine receptor): > 10 µM
- Ki [1]: > 10 µM
- Ki [2]: 4.2 µM
- Ki [3]: > 10 µM
- Ki [4]: > 10 µM

Structure (SMILES): CN(CCCN1c2ccccc2CCc2ccccc21)CC(=O)c1ccc(Cl)cc1 [CAS_23047-25-8]
- Ki (D(2) dopamine receptor): 2 µM
- Ki [1]: 4.6 µM
- Ki [2]: 0.1 µM
- Ki [3]: 0.067 µM
- Ki [4]: 2.7 µM

Structure (SMILES): CNCCCN1c2ccccc2CCc2ccccc21 [Desmethylimipramine]
- Ki (D(2) dopamine receptor): 3.5 µM

Structure (SMILES): CNCCC(Oc1ccccc1C)c1ccccc1 (stereo not given) [Methyl-(3-phenyl-3-o-tolyloxy-propyl)-amine(tomoxetine)]
- Ki [2]: 3.8 µM

Structure (SMILES): NCC[C@H](Oc1ccc(C(F)(F)F)cc1)c1ccccc1 [NORFLUOXETINE]
- Ki (D(2) dopamine receptor): > 10 µM
- Ki [1]: > 10 µM
- Ki [2]: 3.9 µM
- Ki [3]: 0.81 µM
- Ki [4]: > 10 µM

Structure (SMILES): CNCCC=C1c2ccccc2CCc2ccccc21 [NORTRIPTYLINE]
- Ki (D(2) dopamine receptor): 2.57 µM
- Ki [1]: 0.294 µM
- Ki [2]: 0.055 µM
- Ki [3]: 0.037 µM

Structure (SMILES): CN(C)Cc1nnc2n1-c1ccc(Cl)cc1C(c1ccccc1)=NC2 [NSC_37632]
- Ki (D(2) dopamine receptor): > 10 µM
- Ki [1]: > 10 µM
- Ki [2]: > 10 µM
- Ki [3]: > 10 µM
- Ki [4]: > 10 µM

Structure (SMILES): CCc1nn(CCCN2CCN(c3cccc(Cl)c3)CC2)c(=O)n1CC [NSC_40589]
- Ki (D(2) dopamine receptor): 2.3 µM
- Ki [1]: 0.085 µM
- Ki [2]: 0.038 µM
- Ki [3]: > 10 µM
- Ki [4]: 0.57 µM

Structure (SMILES): COc1ccc(C(CN(C)C)C2(O)CCCCC2)cc1 (stereo not given) [NSC_62923]
- Ki (D(2) dopamine receptor): > 10 µM
- Ki [1]: > 10 µM
- Ki [2]: > 10 µM
- Ki [3]: > 10 µM
- Ki [4]: > 10 µM

Structure (SMILES): Fc1ccc([C@@H]2CCNC[C@H]2COc2ccc3c(c2)OCO3)cc1 [PAROXETINE]
- Ki (D(2) dopamine receptor): > 10 µM
- Ki [1]: > 10 µM

Structure (SMILES): CN[C@@H]1CC[C@@H](c2ccc(Cl)c(Cl)c2)c2ccccc21 [[4-(3,4-Dichloro-phenyl)-1,2,3,4-tetrahydro-naphthalen-1-yl]-methyl-amine]
- Ki (D(2) dopamine receptor): > 10 µM
- Ki [1]: > 10 µM
- Ki [2]: 0.38 µM
- Ki [3]: 0.63 µM
